Patent US10111885B2, “Compositions and therapeutic methods for the treatment of complement-associated diseases” (Resverlogix Corp., priority 2015, dated 2018)
Where two headings read alike, the source gives them in different places.

Legend:
C4a/C4b mRNA = assay: Complement gene mRNA expression, TaqMan real-time PCR, Huh-7 cells; format: cell-based, human; conditions: for IC50: Homo sapiens
Excerpt: (§1) In this example, mRNA levels from cultured cells were quantitated. The assay can be used to determine the effect of compound(s) on regulating mRNA levels, including those compounds in the present invention. Complement genes are expressed at high endogenous levels, but their expression can also be stimulated with various cytokines in inflammatory conditions. Experiments in this example target both basal and inflammatory complement gene expression. Compound mediated changes in gene expression and resulting mRNA levels are presented in Tables 2, 3 and 4 as well as FIGS. 1, 2, 3 and 4 below.
(§2) Huh-7 and HepG2 cells are liver-derived cell lines and are models for what can occur in the liver. Huh-7 cells (JCRB Cell Bank) were introduced to 96-well plates (^˜2.5×10^5 per well) in 100 μL DMEM containing 10% (v/v) FBS, 100 U/mL penicillin, 100 ug/mL streptomycin and 5 ug/mL plasmocin (all reagents from Gibco, except for the former, which was obtained from Invivogen). After 24 h, Huh-7 cells were treated with compounds in the same media formulation used for plating, and supplemented with 0.1% DMSO for the amount of time indicated in tables 2, 3, and 4. For select experiments, 24 h post-plating, cells were treated with cytokines and the compound of interest simultaneously, for a total treatment time of 48 h. Alternatively, 24 h after plating, cells were pre-treated with cytokines for 24 h before adding the compound of interest for 48 h. HepG2 cells (ATCC) were cultured in 96-well plates (^˜2.5×10^5 per well) in MEM containing 10% FBS, 1× non-essential amino acids, 1 mM sodium pyruvate, 2 mM L-glutamine, 100 U/mL penicillin, 100 ug/mL streptomycin and 5 ug/mL plasmocin. Serum amount was reduced to 0.5% for treatments with compound or cytokines. Timing of treatment of HepG2 cells with compounds and cytokines was as described for Huh-7 cells. Primary human hepatocytes (CellzDirect/Life Technologies) were plated in collagen coated 96-well plates at 70 000 cells/well, then overlaid with Matrigel™ as recommended by the supplier. Cells were treated with compounds of interest and/or cytokines for the indicated time points in the recommended media supplemented with 0.1% DMSO and 10% FBS (v/v). Cells were harvested by mRNA Catcher PLUS Kit (Life Technologies) followed by real-time PCR using the RNA UltraSense One-Step qRT-PCR System. The level of the mRNA of interest was measured by TaqMan real-time PCR relative to the endogenous control cyclophilin A in the same sample. Data were acquired using the ViiA-7 Real Time PCR System (Applied Biosystems).
(§3) Downregulation of expression of components of the complement cascade will result in reduced activity of the pathway and thus will constitute a positive result. Tables 2 and 3 list the concentration of compounds at which the level of the indicated mRNA is reduced by 50%, as well as the duration of treatment with compound. Table 4 lists the maximum reduction in the indicated mRNA measured in primary human hepatocytes treated with compounds for up to 72 hours. FIGS. 1, 2, 3 and 4 show effects of compounds on cytokine-induced (i.e. inflammatory) expression of complement genes in Huh-7 cells and HepG2 cells.

C3 mRNA = assay: as above; format: cell-based, human; conditions: for IC50: Homo sapiens
Excerpt: as §1, §2, §3

C5 mRNA = assay: as above; format: cell-based, human; conditions: for IC50: Homo sapiens
Excerpt: as §1, §2, §3

C1S mRNA = assay: as above; format: cell-based; conditions: Homo sapiens; Huh-7, 48 h treatment; read-out: C1S (48 h) mRNA, half maximal inhibitory concentration (IC50)
Excerpt: as §1
as §2, with “Data were acquired using the ViiA-7 Real Time PCR System (Applied Biosystems).” left out
(§4) Downregulation of expression of components of the complement cascade will result in reduced activity of the pathway and thus will constitute a positive result. […] Table 4 lists the maximum reduction in the indicated mRNA measured in primary human hepatocytes treated with compounds for up to 72 hours. […]

MBL2 mRNA = assay: as above; format: cell-based; conditions: Homo sapiens; Huh-7, 48 h treatment; read-out: MBL2 (48 h) mRNA, half maximal inhibitory concentration (IC50)
Excerpt: as §1
as §2, with “Data were acquired using the ViiA-7 Real Time PCR System (Applied Biosystems).” left out
as §4

complement C5 protein = assay: Secreted complement protein ELISA, HepG2 cells; format: cell-based, human; conditions: HepG2, 72 h, ± standard deviation
Protocol: (§5) In this example, protein secretion from cells grown in culture in the presence of compound of interest was analyzed by enzyme linked immunosorbent assay (ELISA). In some cases, cultured cells were treated with cytokines and the compound of interest to mimic an inflammatory state. The method can be used to determine the effect of compounds, including those in the present invention, on the secretion of specific proteins from cells grown in culture under basal and cytokine stimulated (i.e. inflammatory) conditions (Table 7, FIGS. 5 and 6).
(§6) Huh-7 cells (JCRB Cell Bank) were introduced to 24-well plates in 500 μL DMEM supplemented with 10% (v/v) FBS, 100 U/mL penicillin, 100 ug/mL streptomycin and 5 ug/mL plasmocin (all reagents from Gibco, except for the former, which comes from Invivogen) at 200 000 cells/well. After 24 h, cells were treated with the compound of interest and/or cytokines in DMEM with 10% FBS containing 0.1% DMSO for a total treatment time of 72 h. Fresh media containing compounds and/or cytokines was introduced in the final 24 h of the experiment. At harvest, media were collected, debris was removed by brief centrifugation, and ELISA assays for the indicated proteins were performed as per the manufacturer's protocol. To correct for differences in cell numbers, values obtained for complement proteins were normalized to values for transferrin. HepG2 cells (ATCC) were cultured in MEM containing 10% FBS, 1× non-essential amino acids, 1 mM sodium pyruvate, 2 mM L-glutamine, 100 U/mL penicillin, 100 ug/mL streptomycin and 5 ug/mL plasmocin. Serum amount was reduced to 0.5% when compounds were present. Treatment combinations and timing were as described above for Huh-7 cells. Primary human hepatocytes (CellzDirect/Life Technologies) were plated in collagen coated 96-well plates at 70 000 cells/well, then overlaid with Matrigel™ as recommended by the supplier. Cells were treated with compounds of interest with or without the indicated cytokines for a total of 72 h in the recommended media supplemented with 10% FBS and 0.1% DMSO (v/v). Media were collected for measurements of secreted proteins.
(§7) The ELISA kits for detection of complement C3, C4, C5 and C9 were obtained from AssayPro (St. Charles, Mo.), while the ELISA reagents for transferrin detection were from Bethyl Laboratories (Montgomery, Tex.). Data were collected on a Thermo Scientific Multiskan GO apparatus. Downregulation of expression of components of the complement cascade will result in reduced activity of the pathway and thus will constitute a positive result.

complement C3 protein = assay: Secreted complement protein ELISA, HepG2 cells; format: cell-based, human; conditions: HepG2, 72 h, ± standard deviation
Protocol: as §5, §6, §7

complement C4 protein = assay: Secreted complement protein ELISA, HepG2 cells; format: cell-based, human; conditions: HepG2, 72 h, ± standard deviation
Protocol: as §5, §6, §7

[1] = read-out: C4a/C4b (72 h) mRNA, half maximal inhibitory concentration (IC50), Huh-7, 72 h treatment
[2] = Huh-7, 48 h treatment, read-out: C3 (48 h) mRNA, half maximal inhibitory concentration (IC50)
[3] = read-out: C5 (72 h) mRNA, half maximal inhibitory concentration (IC50), Huh-7, 72 h treatment
[4] = Huh-7 pre-treated with cytokines
[5] = Huh-7 treated simultaneously with cytokines

**Q.** For Cc1sc2c(c1C)C(c1ccc(Cl)cc1)=N[C@@H](CC(=O)OC(C)(C)C)c1nnc(C)n1-2 [JQ1, (S)-tert-butyl 2-(4-(4-chlorophenyl)-2,3,9-trimethyl-6H-thieno[3,2-f][1,2,4]triazolo[4,3-a][1,4]diazepin-6-yl)acetate, reference compound], which IC50 (C4a/C4b mRNA; [1]) is on record?
**A.** Its IC50 is 0.07 µM.

**Q.** What about the IC50 (C4a/C4b mRNA; Huh-7, 48 h treatment (Table 3), read-out: mRNA expression in Huh-7 cells: IC50 (uM), C4) of the same compound?
**A.** The IC50 was 0.065 µM.

**Q.** And the IC50 (C3 mRNA; Huh-7, 48 h treatment (Table 3), read-out: mRNA expression in Huh-7 cells: IC50 (uM), C3)?
**A.** Its IC50 is 0.18 µM.

**Q.** What about the IC50 (C3 mRNA; [2]) of the same compound?
**A.** The IC50 was 0.2 µM.

**Q.** And the IC50 (C5 mRNA; [3])?
**A.** Its IC50 is 0.27 µM.

**Q.** And the IC50 (C1S mRNA)?
**A.** The IC50 was 0.3 µM.

**Q.** And the IC50 (MBL2 mRNA)?
**A.** Its IC50 is 0.16 µM.

**Q.** And the “C5 secretion, percent maximum reduction in protein levels” value (complement C5 protein; 0.75 uM)?
**A.** The value was 82 ± 7%.

**Q.** And the “C3 secretion, percent maximum reduction in protein levels” value (complement C3 protein; 0.75 uM)?
**A.** Its value is 54 ± 5%.

**Q.** What about the “C4 secretion, percent maximum reduction in protein levels” value (complement C4 protein; 0.75 uM) of the same compound?
**A.** Its value is 81 ± 9%.

**Q.** COc1cc(OC)c2c(=O)[nH]c(-c3cc(C)c(OCCO)c(C)c3)nc2c1 [RVX000222, 2-(4-(2-hydroxyethoxy)-3,5-dimethylphenyl)-5,7-dimethoxyquinazolin-4(3H)-one] was tested. Which IC50 (C4a/C4b mRNA; [1]) did it give?
**A.** Its IC50 is 5.4 µM.

**Q.** What about the IC50 (C4a/C4b mRNA; Huh-7, 48 h treatment, read-out: C4a/C4b (48 h) mRNA, half maximal inhibitory concentration (IC50)) of the same compound?
**A.** Its IC50 is 6.3 µM.

**Q.** What about the “expression of complement component 4 at the mRNA level (FIG. 3)” value (C4a/C4b mRNA; [4]) of the same compound?
**A.** The value was “reduces expression”.

**Q.** What about the “expression of complement component 4 at the mRNA level (FIG. 1)” value (C4a/C4b mRNA; [5]) of the same compound?
**A.** Its value is “reduces expression”.

**Q.** What about the IC50 (C3 mRNA; [2]) of the same compound?
**A.** The IC50 was 1.9 µM.

**Q.** And the “expression of complement component 3 at the mRNA level (FIG. 3)” value (C3 mRNA; [4])?
**A.** Its value is “reduces expression”.

**Q.** What about the “expression of complement component 3 at the mRNA level (FIG. 1)” value (C3 mRNA; [5]) of the same compound?
**A.** Its value is “reduces expression”.

**Q.** What about the IC50 (C5 mRNA; [3]) of the same compound?
**A.** Its IC50 is 21.8 µM.

**Q.** What about the IC50 (C5 mRNA; Huh-7, 48 h treatment, read-out: C5 (48 h) mRNA, half maximal inhibitory concentration (IC50)) of the same compound?
**A.** Its IC50 is > 30 µM.

**Q.** And the “expression of complement component 5 at the mRNA level (FIG. 3)” value (C5 mRNA; [4])?
**A.** The value was “reduces expression”.

**Q.** What about the “expression of complement component 5 at the mRNA level (FIG. 1)” value (C5 mRNA; [5]) of the same compound?
**A.** Its value is “reduces expression”.

**Q.** What about the IC50 (C1S mRNA) of the same compound?
**A.** The IC50 was 18.9 µM.

**Q.** And the IC50 (MBL2 mRNA)?
**A.** The IC50 was 16.3 µM.

**Q.** And the “C5 secretion, percent maximum reduction in protein levels” value (complement C5 protein; 30 uM)?
**A.** The value was 77 ± 4%.

**Q.** And the “C3 secretion, percent maximum reduction in protein levels” value (complement C3 protein; 30 uM)?
**A.** Its value is 34 ± 5%.

**Q.** What about the “C4 secretion, percent maximum reduction in protein levels” value (complement C4 protein; 30 uM) of the same compound?
**A.** The value was 65 ± 5%.
